# US5086072A, “Treatment of mood disorders with functional antagonists of the glycine/NMDA receptor complex” (The United States of America as represented by the …, priority 1990, dated 1992)
# Read-outs that look alike come from different tables or passages of the source.
# Tests used:
# [1] = forced swim and/or tail suspension tests (overall conclusion); type: in vivo, mice
# Method: (§1) Certain exemplary compounds encompassed hereby were evaluated pharmacologically in mice using the forced swim (8) and/or tail suspension (9) tests. These tests were initially designed to detect potential antidepressant agents (13, 14) based on the abilities of clinically effective antidepressants to reduce the immobility that animals typically display after active and unsuccessful escape attempts when subjected to these inescapable stressors. Moreover, the predictive validity (15) and pharmacological specificity (13, 14) of these tests has led to the proposal that they represent animal models of depression. (16)
# [2] = tested on: NMDA receptor complex; settings: cited from earlier work
# [3] = type: in vivo, mice (male NIH/HSD); settings: for ACTIVITY (time spent ambulating in an open field): mean ± SEM
# Method: (§2) Values represent means ± standard error of the mean. The number of animals examined in the forced swim test was: VEH, 40; ACPC 25 mg/kg, 11 and 50-600 mg/kg, 10. In the open field, the number of animals tested was: VEH 23; 50 and 600 mg/kg, 5; and 100-400 mg/kg, 10. Male NIH/HSD mice (25-30 g) were injected i.p. with ACPC dissolved in saline. Controls received an equivalent volume of saline. Fifteen minutes later, mice were placed in a cylinder (diameter: 10 cm; height: 25 cm) filled with 6 cm of water (22°-25° C.) and the duration of immobility during the last four minutes of forced swim was measured as described. (8) The ambulatory time in an open field was measured for five minutes, fifteen minutes after injection of ACPC as described in Table 1.
# (§3) Glycine (800 mg/kg) or an equivalent volume of saline was administered intraperitoneally to NIH/HSD mice 45 minutes prior to ACPC (400 mg/kg). Fifteen minutes after ACPC administration, animals were evaluated in the forced swim test or in an open field as described in Table 1. This dose of glycine was selected based on a previous report (40), showing that parenteral administration of large doses is required to elevate cerebral levels of glycine. […] Amino acid levels were determined using HPLC/EC with an isocratic separation method and pre-column amino acid derivatization with o-pthalaldehyde and β-mercaptoethano (41).
# [4] = forced swim test, duration of immobility during last 4 minutes of 6 minute swim; type: in vivo, mice (male NIH/HSD); settings: for IMMOBILITY %: change versus control; for minimal effective dose: Mus musculus, read-out: minimum effective dose, swim-induced immobility
# Method: as §1
# The duration of immobility was measured during the […]
# as §2, with “Fifteen minutes later, mice were placed in a cylinder (diameter: 10 cm; height: 25 cm) filled with 6 cm of water (22°-25° C.) and the duration of immobility during the last four minutes of forced swim was measured as described.” left out
# as §3
# [5] = behavioral effects and lethality observed in connection with forced swim; settings: for behavioral effects prior to forced swim: I2CA 25-200, HA-966 2.5-10, ACBC 50-100 mg/kg; for lethality combined with forced swim: I2CA 25-200, HA-966 2.5-10 mg/kg
# Method: (§4) Inset: Effects of ACPC on tail suspension-induced immobility. Values are mean standard error of immobility (sec.) during a 6 minute test. The number of animals used in this test was: VEH, 16; ACPC, 200 mg/kg, 6; 300 mg/kg, 9 and 400 mg/kg, 7. Male C57Bl/6J mice [20-25 g](Jackson Laboratories, Bar Harbor, ME) were injected with ACPC. Fifteen minutes later, mice were suspended by the tail and the duration of immobility measured as described. […] 7-chlorokynurenic acid (25-150 mg/kg), indole2-carboxylic acid (I2CA) (25-200 mg/kg), 3-amino-1-hydroxypyrrolidone (HA-966) (2.5-10 mg/kg), cycloleucine (100-400 mg/kg) and 1-aminocyclobutanecarboxylic acid (ACBC) (50-100 mg/kg) were tested under identical conditions to those employed for the other agents (Table 1 and FIG. 1).
# [6] = target: strychnine sensitive glycine receptors; settings: cited from earlier work
# [7] = cited from earlier work
# [8] = tail suspension test, duration of immobility; type: in vivo, mice (male C57Bl/6J); settings: 200-400 mg/kg, 15 min before test; F(2,31)=29, p<0.0001
# Method: as §4
# [9] = target: strychnine-insensitive glycine receptors; settings: cited from earlier work
# [10] = ambulatory time in the open field (tail suspension study); type: in vivo, C57Bl/6J mice; settings: 400 mg/kg
# [11] = tested on: NMDA-gated cation channel; settings: compared with glycine; cited from earlier work
# [12] = cited from earlier work; remark: listed apart in the source
# [13] = type: in vivo, mice (male NIH/HSD); settings: for ACTIVITY (time spent ambulating in an open field): 30 min before test, mean ± SEM
# [14] = 60 min after 800 mg/kg i.p.; data not shown
# Method: as §3
# [15] = 0.1 mg/kg i.p., 15 min before test
# [16] = 0.5 mg/kg i.p., 15 min before test
# [17] = 1 mg/kg i.p., 15 min before test
# [18] = 7-chlorokynurenic acid 25-150, I2CA 25-200, HA-966 2.5-10, cycloleucine 100-400, ACBC 50-100 mg/kg
compound,measurement,setting,value
"C[C@]12N[C@H](Cc3ccccc31)c1ccccc12 (racemic) [MK-801, (+)-5-methyl-10,11-dihydro-5H-dibenzo[a,d]cycloheptene-5, 10-imine]",activity in the antidepressant models,[1],mimic clinically effective antidepressants in these models
same,activity at the NMDA receptor complex,[2],non-competitive NMDA antagonist
same,ACTIVITY (time spent ambulating in an open field),[3]; [15],144 ± 4 s
same,increase in ambulatory time in an open field,[3]; 0.5 mg/kg,34%
same,ACTIVITY %,"[3]; 0.5 mg/kg i.p., 15 min before test, change versus control",+34%
same,ACTIVITY (time spent ambulating in an open field),[3]; [16],201 ± 3 s
same,ACTIVITY (time spent ambulating in an open field),[3]; [17],170 ± 14 s
same,effect on ambulatory time,[3]; 0.1 and 1 mg/kg,did not alter ambulatory time
same,IMMOBILITY %,[4]; [15],-43%
same,IMMOBILITY,"[4]; 0.1 mg/kg i.p., 15 min before test, mean ± SEM",80 ± 10 s
same,maximum reduction of duration of immobility,[4]; 0.5 mg/kg,92%
same,IMMOBILITY %,[4]; [16],-92%
same,IMMOBILITY,"[4]; 0.5 mg/kg i.p., 15 min before test, mean ± SEM",11 ± 4 s
same,IMMOBILITY %,[4]; [17],-54%
same,IMMOBILITY,"[4]; 1 mg/kg i.p., 15 min before test, mean ± SEM",64 ± 23 s
same,reduction of duration of immobility,[4]; 0.1 and 1 mg/kg,43-54%
same,effect on duration of immobility in the forced swim test,"[4]; biphasic, doses of Table 1",reduced significantly the duration of immobility
O=C(O)c1cc(O)c2ccc(Cl)cc2n1 [7-chlorokynurenic acid],effect on immobility in the forced swim test,[4]; [18],did not reduce immobility in the forced swim test
"NC1(C(=O)O)CCC1 [ACBC, 1-aminocyclobutanecarboxylic acid]",behavioral effects prior to forced swim,[5],"marked behavioral effects, including ataxia"
same,effect on immobility in the forced swim test,[4]; [18],did not reduce immobility in the forced swim test
"NC1(C(=O)O)CC1 [ACPC, 1-aminocyclopropanecarboxylic acid]",activity in the antidepressant models,[1],mimic clinically effective antidepressants in these models
same,IC50,[6],> 1000 µM
same,anticonflict actions in animal models,[7],possesses anticonflict actions in animal models
same,effect on immobility in the tail suspension test,[8],reduction in immobility
same,increase in ambulatory time,"[3]; 600 mg/kg, F(5,60)=10, p<0.0001",29%
same,effect of glycine on the locomotor effects of ACPC in the open field,[3]; glycine 800 mg/kg i.p. 45 min prior to ACPC 400 mg/kg,partial antagonism
same,Ki,[9],~0.032 µM
same,activity at the strychnine-insensitive glycine binding site,[9],potent and selective partial agonist
same,minimal effective dose,[4],100 mg/kg
same,effect of glycine on the action of ACPC in the forced swim test,"[4]; mouse, in vivo",completely abolished
same,effect on immobility in the forced swim test,"[4]; mouse, in vivo",reduced immobility in the forced swim test in a dosedependent fashion
same,maximum reduction of immobility in the forced swim test,"[4]; mouse, in vivo",65%
same,further effect on immobility at higher doses,"[4]; mouse, in vivo, 200 mg/kg",no further reductions in immobility
same,increase in ambulatory time in the open field,[10],18%
same,efficacy in stimulating [3H]MK-801 binding,[11],significantly less efficacious than glycine
same,muscle relaxation or ataxia,[12],do not produce the muscle relaxation or ataxia
"COC(=O)C1(N)CC1 [ACPCM, methyl 1-aminocyclopropanecarboxylate]",minimal effective dose,[4]; Table 2,50 mg/kg
same,IMMOBILITY,"[4]; Table 2, 25 mg/kg",126 ± 8 s
same,IMMOBILITY %,"[4]; Table 2, 25 mg/kg",-8%
same,IMMOBILITY,"[4]; Table 2, 50 mg/kg",89 ± 17 s
same,IMMOBILITY %,"[4]; Table 2, 50 mg/kg",-35%
same,IMMOBILITY,"[4]; Table 2, 100 mg/kg",40 ± 18 s
same,IMMOBILITY %,"[4]; Table 2, 100 mg/kg",-71%
same,IMMOBILITY,"[4]; Table 2, 150 mg/kg",69 ± 10 s
same,IMMOBILITY %,"[4]; Table 2, 150 mg/kg",-50%
"NC(CCCCCP(=O)(O)O)C(=O)O (stereo not drawn) [AP-7, 2-amino-7-phosphonoheptanoic acid]",activity in the antidepressant models,[1],mimic clinically effective antidepressants in these models
same,ACTIVITY (time spent ambulating in an open field),[13]; 40 mg/kg i.p.,144 ± 5 s
same,ACTIVITY (time spent ambulating in an open field),[13]; 80 mg/kg i.p.,167 ± 16 s
same,ACTIVITY (time spent ambulating in an open field),[13]; 100 mg/kg i.p.,153 ± 5 s
same,ACTIVITY (time spent ambulating in an open field),[13]; 200 mg/kg i.p.,134 ± 10 s
same,activity at the NMDA receptor complex,[2],competitive antagonist
same,effect on ambulatory time in an open field,[3]; doses of Table 1,without affecting ambulatory time
same,IMMOBILITY,"[4]; 40 mg/kg i.p., 30 min before test, mean ± SEM",141 ± 21 s
same,IMMOBILITY,"[4]; 80 mg/kg i.p., 30 min before test, mean ± SEM",153 ± 9 s
same,IMMOBILITY %,"[4]; 100 mg/kg i.p., 30 min before test",-35%
same,IMMOBILITY,"[4]; 100 mg/kg i.p., 30 min before test, mean ± SEM",93 ± 8 s
same,IMMOBILITY %,"[4]; 200 mg/kg i.p., 30 min before test",-62%
same,IMMOBILITY,"[4]; 200 mg/kg i.p., 30 min before test, mean ± SEM",55 ± 13 s
same,effect on duration of immobility in the forced swim test,"[4]; F(4,71) = 17, p<0.0001","significant, dose dependent reduction in the duration of immobility"
"NC1CCN(O)C1=O (stereo not drawn) [HA-966, 3-amino-1-hydroxypyrrolidone]",lethality combined with forced swim,[5],lethal when combined with forced swim
same,behavioral effects prior to forced swim,[5],"marked behavioral effects, including ataxia"
same,effect on immobility in the forced swim test,[4]; [18],did not reduce immobility in the forced swim test
"O=C(O)c1cc2ccccc2[nH]1 [I2CA, indole2-carboxylic acid]",lethality combined with forced swim,[5],lethal when combined with forced swim
same,behavioral effects prior to forced swim,[5],"marked behavioral effects, including ataxia"
same,effect on immobility in the forced swim test,[4]; [18],did not reduce immobility in the forced swim test
NC1(C(=O)O)CCCC1 [cycloleucine],effect on immobility in the forced swim test,[4]; [18],did not reduce immobility in the forced swim test
NCC(=O)O [glycine],"concentrations of other amino acids (glutamate, serine, taurine, GABA, alanine) in the hippocampus",[14],unchanged
same,intrinsic activity in the open field,"[13]; mouse, in vivo",devoid of intrinsic activity
same,intrinsic activity in the forced swim test,"[4]; mouse, in vivo",devoid of intrinsic activity
